Measurements published in patent publication US20260207575A1, “P[…] THE TREATMENT OF JUVENILE HUNTINGTON DISEASE” (Prilenia Neurotherapeutics Ltd., priority 2022, published 2026).
Like-named read-outs stand apart in the source and are kept apart here.

Columns and labels:
[1] = system: dopamine D2/D3 receptors; conditions: low-affinity binding; cited from earlier work
[2] = system: HD patients with CAG repeat length >=50; conditions: for TFC LS Mean change vs placebo: 45 mg bid (n=1) vs placebo (n=4); for TFC LS Mean change from baseline: n=1
Procedure: (§1) All patients began treatment with a 2-week titration period (45 mg once a day) followed by full-dose treatment for 63-78 weeks.
(§2) Efficacy was evaluated using the following clinical endpoints: Change from Baseline to Week 78 in composite UHDRS (cUHDRS) total score, Total Functional Capacity (UHDRS-TFC) score and Stroop Word Reading (SWR) testing for cognitive assessment.
The UHDRS-TFC score is a commonly used and regulatory-accepted clinical scale used for assessing the functional capacity of subjects with HD and monitoring the disease's progression and severity over time. This score ranges from 0 to 13 and higher scores indicate better functional capacity. A score of 13 means that the individual is entirely functional with no indications of impairment, while a score of 0 indicates complete dependence on others for daily activities.

[3] = system: HD patients with CAG repeat length >=50; conditions: 45 mg bid; up to 78 weeks; CAG >=50
Procedure: as §1, §2

[4] = system: HD patients with CAG repeat length >=50; conditions: for cUHDRS LS Mean change vs placebo: 45 mg bid (n=1) vs placebo (n=4); for cUHDRS LS Mean change from baseline: n=1
Procedure: as §1, §2
The composite Unified Huntington's Disease Rating Scale (cUHDRS) is a clinical scale used for evaluating the severity and progression of Huntington's disease (HD).
The cUHDRS is a composite scale assessing overall progression of independent key aspects of HD: functional ability, motor symptoms, and cognitive function. cUHDRS comprises four subscales: Total Functional Capacity (TFC), Total Motor Score (TMS), and 2 cognitive measures: the Symbol-Digit Modality Test (SDMT), and Stroop Word Reading (SWR) Test.
The cUHDRS score is a validated scale used for tracking disease progression and evaluating treatment effectiveness in subjects with HD. Higher scores on cUHDRS indicates better overall disease state. By measuring multiple domains, the cUHDRS provides a global and comprehensive assessment of the disease stage.

[5] = 45 mg bid, up to 78 weeks, CAG >=50
[6] = Week 26, 45 mg bid, CAG >=50, positive change = improvement

CCCN1CCC(c2cccc(S(C)(=O)=O)c2)CC1 [Pridopidine, 4-[3-(methylsulfonyl)phenyl]-1-propyl-piperidine]
binding affinity to dopamine D2/D3 receptors [1]: in the micromolar range | effect on TFC / functional capacity compared to placebo (in words) [2, 5]: marked improvement | TFC LS Mean change vs placebo ([2]; Week 26): 2.99 points | TFC LS Mean change from baseline [2, 6]: 2.96 | TFC LS Mean change vs placebo ([2]; Week 39): 3.06 points | TFC LS Mean change from baseline ([2]; Week 39, 45 mg bid, CAG >=50): 2.96 | TFC LS Mean change vs placebo ([2]; Week 52): 3.00 points | TFC LS Mean change from baseline ([2]; Week 52, 45 mg bid, CAG >=50): 2.91 | TFC LS Mean change vs placebo ([2]; Week 65): 2.90 points | TFC LS Mean change from baseline ([2]; Week 65, 45 mg bid, CAG >=50): 2.61 | TFC LS Mean change vs placebo ([2]; Week 78): 3.45 points | TFC LS Mean change from baseline ([2]; Week 78, 45 mg bid, CAG >=50): 2.93 | effect on SWR / cognitive function compared to placebo (in words) [3]: marked improvement | effect on cUHDRS / disease progression compared to placebo (in words) [4, 5]: marked improvement | cUHDRS LS Mean change vs placebo ([4]; Week 26): 2.52 points | cUHDRS LS Mean change from baseline [4, 6]: 1.79 | cUHDRS LS Mean change vs placebo ([4]; Week 39): 2.66 points | cUHDRS LS Mean change from baseline ([4]; Week 39, 45 mg bid, CAG >=50): 1.83 | cUHDRS LS Mean change vs placebo ([4]; Week 52): 2.49 points | cUHDRS LS Mean change from baseline ([4]; Week 52, 45 mg bid, CAG >=50): 1.67 | cUHDRS LS Mean change vs placebo ([4]; Week 65): 2.32 points | cUHDRS LS Mean change from baseline ([4]; Week 65, 45 mg bid, CAG >=50): 1.41 | cUHDRS LS Mean change vs placebo ([4]; Week 78): 2.52 points | cUHDRS LS Mean change from baseline ([4]; Week 78, 45 mg bid, CAG >=50): 1.42
